Data: US20250339569A1, “CARBONIC ANHYDRASE IX LIGANDS” (priority 2021, published 2025)
Starred links: 1 amine or outer side, 2 acyl side, 3 side chain; linkers in the order of their positions; H or OH if unused. Positions of bridges follow the written chain, without caps; N, C: chain ends. Non-standard residues stand in square brackets, D forms with d. Residues, ends and D or L forms follow the SMILES beside them. *: point of attachment. DOTA = O=C(O)CN1CCN(CC(=O)O)CCN(CC(=O)*)CCN(CC(=O)O)CC1; mXylylene = c1cc(C[*:1])cc(C[*:2])c1; tBuAla = CC(C)(C)C[C@H](N)C(=O)O; Ac6c = NC1(C(=O)O)CCCCC1; Nlys = NCCCCNCC(=O)O

What was measured:
[1] = target: T1, NEP (Homo sapiens, UniProt P08473); test: Proteolytic stability assay against NEP; type: in vitro ADME; details: human, recombinant soluble human NEP, 100 ng/mL NEP, 10 μM compound, 37°C, read-out: % intact compound remaining after 24 h incubation
T1 construct: Recombinant soluble human NEP; purchased BioTechne, Wiesbaden, Germany
Experimental: To assess the stability of compounds against NEP, the compounds were subjected to an in vitro assay based on the protocol described by Edelson et al. (Edelson et al., Pulmonary pharmacology & therapeutics, 2013, 26, 229-238).
Recombinant soluble human NEP (BioTechne, Wiesbaden, Germany) at a concentration of 100 ng/mL was mixed with the compound (10 μM) and a stable internal standard (10 μM) and incubated at 37° C. After several time points, samples were taken and analyzed with LC-MS.
The activity of NEP was examined using a commercially available chromogenic substrate of NEP.

[2] = target: T2, CAIX-expressing human HT-29 colorectal cancer cells (Homo sapiens, UniProt Q16790); test: FACS binding assay (IC50 determination, competition with tracer 3BP-2776 or 3BP-4149); details: FACS competition on HT-29 cells, Tracer ID 3BP-2776 (10 nM, biotin-labeled), 4° C., 1 hour; read-out: pIC50 category (activity) (converted)
T2 construct: CAIX-expressing human HT-29 colorectal cancer cells; host or cells: HT-29 human colorectal cancer cells
Summary of the method: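 HT-29 cells in FACS buffer (PBS, 1% FCS) at 500.000 cells/ml were exposed to compounds competing with a labelled tracer, with biotinylated compounds detected by 1 μg/mL APC-streptavidin for 30 min on ice. APC/Cy5 median fluorescence was read by flow cytometry and IC50 derived by 4PL fit.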

[3] = Plasma stability assay, mouse plasma; details: mouse, plasma (K2EDTA)
[4] = target: T3, human carbonic anhydrase IX (hCAIX-Fc) (Homo sapiens, UniProt Q16790); test: Surface plasmon resonance assay with hCAIX-Fc; type: binding; details: 25° C.; for Kd: SPR, hCAIX-Fc captured, read-out: pKD category (activity) (converted)
T3 construct: purchased SinoBliological (Sino Biological) 10107-H02H

T1 sequence (P08473 52-750 limits assumed): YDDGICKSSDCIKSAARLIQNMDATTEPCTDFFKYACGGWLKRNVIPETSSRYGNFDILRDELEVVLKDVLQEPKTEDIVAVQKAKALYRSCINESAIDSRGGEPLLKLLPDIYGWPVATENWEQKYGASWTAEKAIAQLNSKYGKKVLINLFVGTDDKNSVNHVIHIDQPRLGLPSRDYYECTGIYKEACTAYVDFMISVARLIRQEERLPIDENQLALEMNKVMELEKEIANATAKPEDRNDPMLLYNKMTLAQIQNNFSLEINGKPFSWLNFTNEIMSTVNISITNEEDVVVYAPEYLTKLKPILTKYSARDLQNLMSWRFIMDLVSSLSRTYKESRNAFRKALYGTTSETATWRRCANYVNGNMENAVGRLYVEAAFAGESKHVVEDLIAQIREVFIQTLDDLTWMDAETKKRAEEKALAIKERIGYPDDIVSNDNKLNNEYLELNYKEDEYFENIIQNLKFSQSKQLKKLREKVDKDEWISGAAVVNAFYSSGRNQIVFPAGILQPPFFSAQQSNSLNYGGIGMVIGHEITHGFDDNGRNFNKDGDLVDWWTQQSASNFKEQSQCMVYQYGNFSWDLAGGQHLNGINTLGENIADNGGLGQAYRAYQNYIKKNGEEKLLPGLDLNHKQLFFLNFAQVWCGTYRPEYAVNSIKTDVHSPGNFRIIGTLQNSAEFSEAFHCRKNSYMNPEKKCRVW

| Compound | remaining at 24 h, 10 μM [1] [%] | IC50 [2] [µM] | remaining at 4 h, […] [3] [%] | Kd [4] [µM] | t1/2 category (activity) ([4]; SPR dissociation half-life, hCAIX-Fc) |
| --- | --- | --- | --- | --- | --- |
| CC(=O)N[C@H](C(=O)N[C@@H](Cc1ccc(O)cc1)C(=O)N[C@H]1CSCc2cccc(c2)CSC[C@@H](C(N)=O)NC(=O)[C@H](CCC(N)=O)NC(=O)[C@H](Cc2c[nH]c3ccccc23)NC(=O)[C@H]([C@@H](C)O)NC(=O)[C@H](CC(C)C)NC(=O)[C@H](Cc2c[nH]c3ccccc23)NC(=O)[C@H](CC(=O)O)NC(=O)CNC(=O)[C@H](CCC(=O)O)NC1=O)C(C)C [3BP-2837] (Ac-VYCEGDWLTWQC-NH2; linker 3-12 via mXylylene) | > 95 | < 0.01 | > 95 | – | – |
| CC(=O)N[C@H](C(=O)N[C@@H](Cc1ccc(O)cc1)C(=O)N[C@H]1CSCc2cccc(c2)CSC[C@@H](C(N)=O)NC(=O)[C@H](CO)NC(=O)[C@H](Cc2c[nH]c3ccccc23)NC(=O)[C@H]([C@@H](C)O)NC(=O)[C@H](CC(C)(C)C)NC(=O)[C@H](Cc2c[nH]c3ccccc23)NC(=O)[C@H](CC(=O)O)NC(=O)[C@H]2CCCN2C(=O)[C@H](CCC(=O)O)NC1=O)C(C)C [3BP-3491] (Ac-VYCE[dP]DW[tBuAla]TWSC-NH2; linker 3-12 via mXylylene) | > 95 | < 0.01 | > 95 | – | – |
| CC(=O)N[C@H](C(=O)N[C@@H](Cc1ccc(O)cc1)C(=O)N[C@H]1CSCc2cccc(c2)CSC[C@@H](C(N)=O)NC(=O)[C@H](C)NC(=O)[C@H](Cc2c[nH]c3ccccc23)NC(=O)[C@H]([C@@H](C)O)NC(=O)[C@H](CC(C)C)NC(=O)[C@H](Cc2c[nH]c3ccccc23)NC(=O)[C@H](CC(=O)O)NC(=O)CNC(=O)[C@H](CCC(=O)O)NC1=O)C(C)C [3BP-3058] (Ac-VYCEGDWLTWAC-NH2; linker 3-12 via mXylylene) | > 95 | < 0.01 | 95 | < 0.01 | C (t1/2 between 2.1 and 5.0 minutes) |

The next lines start with the values.

| remaining at 24 h, 10 μM [1] [%] | IC50 [2] [µM] | remaining at 4 h, […] [3] [%] | Kd [4] [µM] | t1/2 category (activity) ([4]; SPR dissociation half-life, hCAIX-Fc) | Compound |
| --- | --- | --- | --- | --- | --- |
| > 95 | < 0.01 | 89 | < 0.01 | – | CC(=O)N[C@H](C(=O)N[C@@H](Cc1ccc(O)cc1)C(=O)N[C@H]1CSCc2cccc(c2)CSC[C@@H](C(N)=O)NC(=O)[C@H](C)NC(=O)[C@H](Cc2c[nH]c3ccccc23)NC(=O)[C@H]([C@@H](C)O)NC(=O)[C@H](CC(C)C)NC(=O)[C@H](Cc2c[nH]c3ccccc23)NC(=O)[C@H](CC(=O)O)NC(=O)CN(CCCCNC(=O)CN2CCN(CC(=O)O)CCN(CC(=O)O)CCN(CC(=O)O)CC2)C(=O)[C@H](CCC(=O)O)NC1=O)C(C)C [3BP-3562, Ac-Val-Tyr-[Cys(3MeBn)-Glu-Nlys(DOTA)-Asp-Trp-Leu-Thr-Trp-Ala-Cys]-NH2] (Ac-VYCE[Nlys](DOTA)DWLTWAC-NH2; linker 3-12 via mXylylene) |
| > 95 | < 0.01 | > 95 | – | – | CC(=O)N[C@H](C(=O)N[C@@H](Cc1ccc(O)cc1)C(=O)N[C@H]1CSCc2cccc(c2)CSC[C@@H](C(N)=O)NC(=O)[C@H](C)NC(=O)[C@H](Cc2c[nH]c3ccccc23)NC(=O)[C@H]([C@@H](C)O)NC(=O)C2(CCCCC2)NC(=O)[C@H](Cc2c[nH]c3ccccc23)NC(=O)[C@H](CC(=O)O)NC(=O)[C@H]2CCCN2C(=O)[C@H](CCC(=O)O)NC1=O)C(C)C [3BP-3503] (Ac-VYCE[dP]DW[Ac6c]TWAC-NH2; linker 3-12 via mXylylene) |
